Laboratory results: patent publication EP0285883A2, “Bactobolin as a prophylactic or therapeutic agent for autoimmune diseases, and as an immuno-suppressive agent” (ZAIDAN HOJIN BISEIBUTSU KAGAKU KENKYU KAI, priority 1987, dated 1988)
Where “and” joins values, the source holds several entries; their conditions need not be identical. Equal entries are not always repeated.

Assays:
[1] = system: Acute Experimental Autoimmune Encephalomyelitis (EAE) of Rat; assay: Test 1: acute EAE of rat, treatment during the induction phase; format: in vivo, rats; conditions: for Incidence of EAE Number of animals affected/Number of animals tested: 0.5 mg/Kg intraperitoneal daily, observed for 16 days after immunization; for Histologic score (±SD): treatment during the inductive phase, mean of six separate sections incl. spinal cord and brain, ratings zero to 4
Protocol: To animals (rats) as sensitized with myelin basic protein/complete Freund adjuvant (hereinafter affreviated as MBP/CFA) for immunization, 0.5 mg/kg of bactobolin was administered by intraperitoneal injection daily from the next day (Day 1) of the immunization to Day 8. This administration period corresponds approximately to the induction phase of EAE.

EAE [2] = assay: Test 2: EAE in MBP/CFA-immunized rats, treatment during the effector phase (Day 8-14); format: in vivo; conditions: for Histologic score (±SD): treatment during the effector phase, evaluated for 15 days after the immunization
Protocol: Bactobolin was administered intraperitoneally to the MBP/CFA-immunized animals (rats) during a period (Day 8-14), which was considered to correspond primarily to the effector phase of EAE, and during this period the effects of bactobolin was estimated.

EAE [3] = assay: Test 3: EAE, treatment started after onset of clinical signs; format: in vivo; conditions: 0.5 mg/Kg i.p., started on the day of the first clinical sign
Protocol: A study was conducted to determine whether the intraperitoneal administration of bactobolin made after the incidence of EAE was therapeutically effective, or not.

Passively Induced EAE = assay: Test 4: passively induced EAE (transfer of precultured spleen cells); format: in vivo, rats; conditions: 0.5 mg/Kg, sacrificed Day 9 P.I.
lymph node cells = assay: Test 5: lymphocyte proliferative responses of lymph node cells from treated rats (tritiated thymidine uptake); format: in vivo
Protocol: Using lymph node cells which were separately collected separately from control rats and from the bactobolin-intraperitoneally administered rats on Day 11 (the 11th day after the sensitization), the lymphocyte proliferative responses to specific antigen, as well as the response to Con A were assessed.
Note 1:- Animals belonging to Bactobolin-administered group were daily intraperitoneally with 0.5mg/kg of bactobolin from Day 1 P.I. to Day 8 P.I., and the control animals were treated with PBS. Note 2:-Lymph node cells were obtained from control and bactobolin-treated rats 11 days after the sensitization. These lymphoid cells were cultured with GPBP (10 µg/mℓ), PPD (10 µg/mℓ) or Con A (2 µg/mℓ) for 3 days. The proliferative responses were assessed by measuring the uptake of tritiated thymidine.
In the above, CPM means the measured number of count per minute; MBP means myelin basic protein; PPD means a purified protein derivative; and Con A means concanavalin A.

mouse = conditions: in mouse, intravenous; cited from earlier work

SMILES: C[C@H](N)C(=O)N[C@@H]1[C@H]2C(=C(O)C[C@@H](O)[C@@H]2O)C(=O)O[C@]1(C)C(Cl)Cl [Bactobolin, bactobolin]
- Paralysis score (±SD) ([1]; 0.5 mg/Kg i.p. daily, Day 1-8 (induction phase), sum of the scores daily estimated during the disease): 0 ± 0
- Incidence of EAE Number of animals affected/Number of animals tested ([1]; Day 1-8 (induction phase)): 0/5
- Incidence of EAE Number of animals affected/Number of animals tested ([1]; Day 1-8 (induction phase), listed as bactobolin): none of the rats developed EAE
- Histologic score (±SD) [1]: 0.5 ± 0.6
- Histologic score (±SD) ([1]; listed as bactobolin): suppresses histologic EAE markedly
- Paralysis score (±SD) (EAE [2]; 0.5 mg/Kg i.p., effector phase, Day 8-14, sacrificed on Day 15 P.I.): 0 ± 0
- Incidence of EAE (number of animals affected number of animals tested) (EAE [2]; 0.5 mg/Kg i.p., effector phase, Day 8-14 after the immunization): suppressed the incidence of EAE markedly and 0/5
- Histologic score (±SD) (EAE [2]): 0.1 ± 0.1
- Histologic score (±SD) (EAE [2]; listed as bactobolin): suppressed histologic lesion markedly
- Paralysis score (±SD) (EAE [3]): 4.6 ± 1.2
- Whole duration of illness (days ± SD) (EAE [3]): 4.4 ± 1.0 days
- Paralysis score (±SD) (EAE [3]; listed as bactobolin): suppressed significantly
- Whole duration of illness (days ± SD) (EAE [3]; listed as bactobolin): no substantial influences were observed
- Paralysis score (±SD) (Passively Induced EAE; recipients administered Day 1 to Day 8 P.I.): 0 ± 0
- Incidence of EAE (days ± SD) (Passively Induced EAE; recipients of 2x10^7 precultured spleen cells, administered Day 1 to Day 8 P.I.): suppressed the incidence of passively induced EAE markedly and 0/2
- CPM ± SD (uptake of tritiated thymidine) (lymph node cells; Con A (2 µg/mℓ), 0.5mg/kg i.p. daily Day 1-8 P.I., cells taken 11 days after sensitization, cultured 3 days): suppressed
- lymphocyte proliferative responses to specific antigen (lymph node cells; lymph node cells of the bactobolin-administered group, Day 11, result in words): No lymphocyte proliferative responses to specific antigen were observed
- acute LD50 toxicity (mouse): 6.25 to 12.5 mg/kg
